Holding throughout (type): biochemical
For one assay, the target named is T1, activated JNK3 (Homo sapiens, UniProt P53779).
T1 construct: One such construct encodes amino acid residues Ser40-Glu402 of JNK3α1 and is preceded by Met and Gly residues; Met-Gly (initiator methionine and added glycine) (N); made in house; host or cells: E. coli BL21 (DE3)
Kind of assay: JNK inhibition assay (spectrophotometric coupled-enzyme assay). Particulars: 10 nM activated JNK3, 10 μM ATP; read-out: Activity in the JNK3 Inhibition Assay (Ki rating A-C). Summed up:
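Activated (doubly phosphorylated, MKK7(DD)-activated) human JNK3, 10 nM, preincubated 10 min at 30 °C with inhibitor in 0.1 M HEPES pH 7.5, 10 mM MgCl2, 200 μM EGF receptor peptide, PK/LDH-coupled. Started with 10 μM ATP; A340 decrease followed at 30 °C. Ki from competitive inhibition model fit.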

The target of assay [1] is T2, full length recombinant human Src kinase (Homo sapiens, UniProt P12931).
T2 construct: full length recombinant human Src kinase; purchased Upstate Biotechnology 14-117; host or cells: baculo viral cells (baculovirus expression)
Kind of assay: Src inhibition assay (33P incorporation into poly Glu-Tyr). Particulars: for inhibition at 2 µM: at a 2 μM inhibitor concentration, read-out: Activity in the SRC Inhibition Assay (percent inhibition rating D-F); for Ki: 10 μM ATP, read-out: Activity in the SRC Inhibition Assay (Ki rating A-C). On the procedure:
The compounds were assayed as inhibitors of full length recombinant human Src kinase (from Upstate Biotechnology, cat. no. 14-117) expressed and purified from baculo viral cells. Src kinase activity was monitored by following the incorporation of ^33P from ATP into the tyrosine of a random poly Glu-Tyr polymer substrate of composition, Glu:Tyr=4:1 (Sigma, cat. no. P-0275). The following were the final concentrations of the assay components: 0.05 M HEPES, pH 7.6, 10 mM MgCl2, 2 mM DTT, 0.25 mg/ml BSA, 10 μM ATP (1-2 μCi ^33P-ATP per reaction), 5 mg/ml poly Glu-Tyr, and 1-2 units of recombinant human Src kinase. In a typical assay, all the reaction components with the exception of ATP were pre-mixed and aliquoted into assay plate wells. […] The assay plate was incubated at 30° C. for 10 min before initiating the reaction with ^33P-ATP. After 20 min of reaction, the reactions were quenched with 150 μl of 10% trichloroacetic acid (TCA) containing 20 mM Na3PO4. The quenched samples were then transferred to a 96-well filter plate (Whatman, UNI-Filter GF/F Glass Fiber Filter, cat no. 7700-3310) installed on a filter plate vacuum manifold. Filter plates were washed four times with 10% TCA containing 20 mM Na3PO4 and then 4 times with methanol. 200 μl of scintillation fluid was then added to each well. The plates were sealed and the amount of radioactivity associated with the filters was quantified on a TopCount scintillation counter.

Assay [2] deals with T3, Lck kinase purified from bovine thymus (Bos taurus, UniProt Q3ZCM0).
T3 construct: Lck kinase purified from bovine thymus; purchased Upstate Biotechnology 14-106; host or cells: bovine thymus (tissue-purified)
In words: Lck inhibition assay (33P incorporation into poly Glu-Tyr). Particulars: for Ki: 10 μM ATP, read-out: Activity in the Lck Inhibition Assay (Ki rating A-C). Summed up:
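Filter-binding radiometric assay of 33P transfer from ATP to poly Glu-Tyr (4:1, 5 mg/ml) by bovine thymus Lck in 0.05 M HEPES pH 7.6, 10 mM MgCl2, 2 mM DTT, 0.25 mg/ml BSA, 10 μM ATP. After 10 min at 30° C, reaction started with 33P-ATP, run 20 min, quenched with TCA; filter-bound radioactivity counted by scintillation.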

Another assay deals with CDK-2/Cyclin A (Homo sapiens, UniProt P24941). In words: CDK2 inhibition assay (standard coupled enzyme assay). Particulars: 25 nM CDK-2/Cyclin A; read-out: CDK2 Inhibitory Activity (Ki rating A-C). Summed up: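 CDK-2/Cyclin A (25 nM final) started the reaction after 10-min, 30° C preincubation of compound (30 μM final) with peptide (100 μM), ATP and coupling enzymes in HEPES pH 7.5.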

Assay [3] deals with Glycogen Synthase Kinase 3 (GSK-3) (Homo sapiens, UniProt P49841). In words: GSK-3 inhibition assay (standard coupled enzyme assay). Particulars: 60 nM GSK-3, 10 μM ATP; read-out: GSK-3 Inhibitory Activity (Ki rating A-C). How it is done: Compounds were screened in the following manner for their ability to inhibit Glycogen Synthase Kinase 3 (GSK-3) using a standard coupled enzyme assay (Fox et al (1998) Protein Sci 7, 2249). To an assay stock buffer solution containing 0.1M HEPES 7.5, 10 mM MgCl2, 25 mM NaCl, 2.5 mM phosphoenolpyruvate, 300 μM NADH, 1 mM DTT, 30 μg/mL pyruvate kinase, 10 μg/mL lactate dehydrogenase, 300 μM peptide (HSSPHQp-SEDEEE, American Peptide, Sunnyvale, Calif.), and 60 nM GSK-3, was added a 30 μM solution of the compound in DMSO and the resulting mixture incubated at 30° C. for 5 min. The reaction was initiated by the addition of 10 μM ATP. The rates of reaction were obtained by monitoring absorbance at 340 nm over a 5 minute read time at 30° C. using a Molecular Devices plate reader (Sunnyvale, Calif.). The IC50 was determined from the rate data as a function of inhibitor concentration.

The structures appear in SMILES notation. Where only a bound is given, the exact number is not on record here.

T3 sequence (Q3ZCM0 1-509): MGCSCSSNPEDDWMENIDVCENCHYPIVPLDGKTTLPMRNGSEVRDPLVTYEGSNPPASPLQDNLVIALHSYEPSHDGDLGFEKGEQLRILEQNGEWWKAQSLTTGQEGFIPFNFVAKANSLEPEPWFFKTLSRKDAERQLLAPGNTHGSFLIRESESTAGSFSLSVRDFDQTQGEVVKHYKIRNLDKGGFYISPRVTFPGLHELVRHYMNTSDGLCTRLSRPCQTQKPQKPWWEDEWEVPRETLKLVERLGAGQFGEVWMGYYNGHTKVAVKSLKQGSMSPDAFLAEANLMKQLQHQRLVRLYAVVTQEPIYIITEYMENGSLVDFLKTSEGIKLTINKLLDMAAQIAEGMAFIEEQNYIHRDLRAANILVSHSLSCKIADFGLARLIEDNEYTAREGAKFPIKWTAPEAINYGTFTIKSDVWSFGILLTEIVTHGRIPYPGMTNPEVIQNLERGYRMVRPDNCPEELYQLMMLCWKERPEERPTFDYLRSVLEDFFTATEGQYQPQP
Chain of Glycogen Synthase Kinase 3 (GSK-3) (P49841 whole entry): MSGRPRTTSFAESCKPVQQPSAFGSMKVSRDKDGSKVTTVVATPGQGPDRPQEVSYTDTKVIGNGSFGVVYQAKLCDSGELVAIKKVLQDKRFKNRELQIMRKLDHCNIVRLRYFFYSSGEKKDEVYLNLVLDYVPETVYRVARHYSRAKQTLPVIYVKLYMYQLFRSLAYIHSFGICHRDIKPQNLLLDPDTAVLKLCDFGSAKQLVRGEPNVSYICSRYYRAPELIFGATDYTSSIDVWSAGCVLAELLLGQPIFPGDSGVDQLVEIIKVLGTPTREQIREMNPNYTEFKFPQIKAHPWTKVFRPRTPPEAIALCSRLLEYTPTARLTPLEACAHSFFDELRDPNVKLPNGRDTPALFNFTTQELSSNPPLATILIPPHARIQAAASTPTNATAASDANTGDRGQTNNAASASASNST
T2 sequence (P12931 whole entry): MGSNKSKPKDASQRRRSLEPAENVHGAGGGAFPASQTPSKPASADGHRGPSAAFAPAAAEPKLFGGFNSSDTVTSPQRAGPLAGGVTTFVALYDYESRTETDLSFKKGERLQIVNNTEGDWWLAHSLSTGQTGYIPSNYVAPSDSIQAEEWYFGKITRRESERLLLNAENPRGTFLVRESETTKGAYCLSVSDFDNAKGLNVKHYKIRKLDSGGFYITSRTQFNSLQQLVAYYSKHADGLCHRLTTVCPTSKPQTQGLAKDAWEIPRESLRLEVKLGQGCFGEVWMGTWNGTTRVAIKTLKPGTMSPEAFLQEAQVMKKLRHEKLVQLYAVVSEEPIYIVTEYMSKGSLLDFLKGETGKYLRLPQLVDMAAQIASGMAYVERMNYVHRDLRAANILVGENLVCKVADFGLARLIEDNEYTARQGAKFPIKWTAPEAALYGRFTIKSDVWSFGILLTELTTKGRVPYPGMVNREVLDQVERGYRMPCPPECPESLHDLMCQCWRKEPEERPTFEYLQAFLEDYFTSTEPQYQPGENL
T1 sequence (P53779 40-402): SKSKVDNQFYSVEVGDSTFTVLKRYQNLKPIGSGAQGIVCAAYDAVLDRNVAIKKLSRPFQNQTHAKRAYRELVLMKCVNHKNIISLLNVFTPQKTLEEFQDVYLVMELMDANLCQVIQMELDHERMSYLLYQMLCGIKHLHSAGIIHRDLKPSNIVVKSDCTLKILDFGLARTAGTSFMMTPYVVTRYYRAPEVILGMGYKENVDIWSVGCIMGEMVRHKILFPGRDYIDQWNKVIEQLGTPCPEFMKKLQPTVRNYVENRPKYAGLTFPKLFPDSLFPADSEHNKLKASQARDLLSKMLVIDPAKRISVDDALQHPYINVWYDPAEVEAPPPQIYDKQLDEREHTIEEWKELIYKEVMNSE

Take `COc1cc(-c2ccnc(Nc3ccc(F)cc3)n2)cc(OC)c1OC` [Compound I-3]: the Ki (in general, the dissociation constant of the complex between target and ligand, obtained from inhibition or displacement) on activated JNK3 is below 0.1 µM; in assay [2] it was above 1 µM; at CDK-2/Cyclin A it was above 5 µM. In assay [1], the inhibition (commonly the relative decrease from the control value, in per cent) at 2 µM is below 33%.

In the case of `COc1cc(-c2ccnc(Nc3cccc(F)c3F)n2)cc(OC)c1OC` [Compound I-13], the Ki is below 0.1 µM on activated JNK3 and above 5 µM on CDK-2/Cyclin A. For the same compound, the inhibition at 2 µM in assay [1] was in the range of 24 to 66%.

Regarding `CCOc1c(OC)cc(-c2ccnc(Nc3cccc(OC)c3)n2)cc1OC` [Compound I-50], the Ki at activated JNK3 is below 0.1 µM. In assay [1], the inhibition at 2 µM is 67 to 100%.

Regarding `COc1cc(-c2ccnc(Nc3cccc(O)c3)n2)cc(OC)c1OC` [Compound I-58], at activated JNK3, the Ki was below 0.1 µM. In assay [1], the inhibition at 2 µM lay in the range of 24 to 66%.

`COc1cc(-c2ccnc(Nc3cccc(F)c3)n2)cc(OC)c1OC` [Compound I-60]: the figures for the Ki on activated JNK3 and at CDK-2/Cyclin A were below 0.1 µM and above 5 µM, respectively. The inhibition at 2 µM in assay [1] fell in the range of 67 to 100%.

For the compound `COc1cc(-c2ccnc(Nc3ccc(Cl)nc3)n2)cc(OC)c1OC` [Compound I-61], the results for the Ki at activated JNK3 and on CDK-2/Cyclin A were below 0.1 µM and above 5 µM, respectively. The inhibition at 2 µM in assay [1] is below 33%.

Regarding `COc1cc(-c2ccnc(Nc3ccc4c(c3)OCO4)n2)cc(OC)c1OC` [Compound I-63], the inhibitory constant (Ki) on activated JNK3 was below 0.1 µM. For the same compound, the inhibition at 2 µM in assay [1] is 24 to 66%.

Turning to `COc1cc(-c2ccnc(Nc3ccc(S(N)(=O)=O)cc3)n2)cc(OC)c1OC` [Compound I-66], the Ki was below 0.1 µM on activated JNK3, below 0.1 µM in assay [3] and below 2 µM on CDK-2/Cyclin A. In assay [2] (at a 5 μM inhibitor concentration), the “Activity in the Lck Inhibition Assay (percent inhibition rating D-F)” value is “E (percent inhibition of between 24% and 66%)”.

In the case of `COc1cc(-c2ccnc(Nc3ccc(Cl)nc3)n2)cc(OC)c1O` [Compound I-73], the Ki on activated JNK3 was below 0.1 µM. For the same compound, the inhibition at 2 µM in assay [1] was 24 to 66%.

With `COc1cc(-c2ccnc(Nc3ccccc3)n2)cc2c1OCCO2` [Compound I-74], the Ki on activated JNK3 is below 0.1 µM. The inhibition at 2 µM in assay [1] lay within 24 to 66%.

For the compound `COc1cc(-c2ccnc(Nc3ccc(Cl)cc3)n2)cc2c1OCCO2` [Compound I-76], the Ki at activated JNK3 is below 0.1 µM. Besides, the inhibition at 2 µM in assay [1] was in the range of 24 to 66%.

For the compound `COc1ccc(Nc2nccc(-c3cc(OC)c4c(c3)OCCO4)n2)cc1` [Compound I-78], the inhibitory constant (Ki) at activated JNK3 is below 0.1 µM. Moreover, the inhibition at 2 µM in assay [1] lay within 24 to 66%.

In the case of `COc1cc(-c2ccnc(Nc3cccc(F)c3)n2)cc2c1OCCO2` [Compound I-79], on activated JNK3, the inhibition constant Ki was below 0.1 µM. Further, the inhibition at 2 µM in assay [1] was in the range of 24 to 66%.

For the compound `COc1cc(-c2ccnc(Nc3ccc(F)cc3)n2)cc2c1OCCO2` [Compound I-80], the Ki on activated JNK3 was below 0.1 µM. Besides, the inhibition at 2 µM in assay [1] is 24 to 66%.

Take `COc1cc(-c2ccnc(Nc3cccc(C)c3)n2)cc2c1OCCO2` [Compound I-81]: the Ki at activated JNK3 is below 0.1 µM. Moreover, the inhibition at 2 µM in assay [1] was 67 to 100%.

In the case of `COc1cc(-c2ccnc(Nc3ccc(C)cc3)n2)cc2c1OCCO2` [Compound I-82], the inhibitory constant (Ki) on activated JNK3 is below 0.1 µM. In addition, in assay [1], the inhibition at 2 µM was below 33%.

Turning to `COc1ccc(-c2ccnc(Nc3cccc(Oc4ccccc4)c3)n2)c(OC)c1OC` [II-1], the Ki in assay [1] and in assay [2] was below 0.1 µM throughout.

`COc1ccc(-c2ccnc(Nc3cccc(S(=O)(=O)c4ccccc4)c3)n2)c(OC)c1OC` [II-24]: the inhibitory constant (Ki) was below 0.1 µM in assay [1] and 0.1 to 1 µM in assay [2].

Turning to `COc1ccc(-c2ccnc(Nc3ncnc(Nc4ccccc4)n3)n2)c(OC)c1OC` [II-32], the Ki at activated JNK3 is below 0.1 µM; in assay [3], 0.1 to 1 µM; in assay [2] it was above 1 µM.

As to `COc1cccc(Nc2ncnc(Nc3nccc(-c4ccc(OC)c(OC)c4OC)n3)n2)c1` [II-33], the Ki (on activated JNK3; in assay [3]; in assay [2]) was above 1 µM each time.

`COc1ccc(-c2ccc(C)c(Nc3nccc(-c4ccc(OC)c(OC)c4OC)n3)c2)cc1` [II-44]: the Ki in assay [3] was above 1 µM; in assay [2], 0.1 to 1 µM; on CDK-2/Cyclin A it was above 5 µM.

As for `COc1ccc(-c2ccnc(Nc3cc(-c4cccc(F)c4)ccc3C)n2)c(OC)c1OC` [II-45], the Ki is above 1 µM in assay [3], 0.1 to 1 µM in assay [2] and above 5 µM at CDK-2/Cyclin A.

Consider `COc1ccc(-c2ccnc(Nc3cc(-c4cccc(N)c4)ccc3C)n2)c(OC)c1OC` [II-46], for which the Ki is above 1 µM in assay [3], 0.1 to 1 µM in assay [2] and above 5 µM on CDK-2/Cyclin A.

Take `COc1ccc(-c2ccnc(Nc3cc(-c4cccc(O)c4)ccc3C)n2)c(OC)c1OC` [II-47]: the figures for the inhibition constant Ki (in assay [3]; in assay [2]; at CDK-2/Cyclin A) were 0.1 to 1 µM, 0.1 to 1 µM and above 5 µM, respectively.

For `COc1ccc(-c2ccccc2)cc1Nc1nccc(-c2ccc(OC)c(OC)c2OC)n1` [II-48], the Ki is 0.1 to 1 µM in assay [3], 0.1 to 1 µM in assay [2] and above 5 µM on CDK-2/Cyclin A.

On to `COc1ccc(-c2ccnc(Nc3cccc(-c4ccccc4C)c3)n2)c(OC)c1OC` [II-62], for which the Ki in assay [1] is 0.1 to 1 µM; in assay [2] it was above 1 µM; at CDK-2/Cyclin A, above 5 µM.

On to `COc1ccc(-c2ccnc(Nc3cccc(-c4ccc(C)cc4)c3)n2)c(OC)c1OC` [II-63], for which the values for the Ki in assay [1] and in assay [2] were below 0.1 µM and 0.1 to 1 µM, respectively.

Take `COc1ccc(-c2cccc(F)c2)cc1Nc1nccc(-c2ccc(OC)c(OC)c2OC)n1` [II-64]: the figures for the Ki in assay [1] and in assay [3] were below 0.1 µM and above 1 µM, respectively.

`COc1ccc(Nc2nccc(-c3ccc(OC)c(OC)c3OC)n2)cc1O` [II-70]: the Ki was 0.1 to 1 µM in assay [3], 0.1 to 1 µM in assay [2] and above 5 µM at CDK-2/Cyclin A.

As to `COc1ccc(Nc2nccc(-c3ccc(OC)c(OC)c3OC)n2)cc1[N+](=O)[O-]` [II-71], the Ki in assay [3] is above 1 µM; in assay [2], 0.1 to 1 µM; at CDK-2/Cyclin A, above 5 µM.

Consider `COc1ccc(Nc2nccc(-c3ccc(OC)c(OC)c3OC)n2)cc1N` [II-72], for which the Ki is above 1 µM in assay [3], above 1 µM in assay [2] and above 5 µM at CDK-2/Cyclin A.

As for `COc1ccc(Oc2cc(Nc3nccc(-c4ccc(OC)c(OC)c4OC)n3)ccc2OC)cc1` [II-73], the Ki in assay [3] was below 0.1 µM; in assay [2], below 0.1 µM; on CDK-2/Cyclin A, above 5 µM.

Regarding `COc1ccc(Nc2nccc(-c3ccc(OC)c(OC)c3OC)n2)cc1Oc1cccc(Cl)c1` [II-74], the Ki in assay [3] is below 0.1 µM; in assay [2], below 0.1 µM; on CDK-2/Cyclin A, above 5 µM.

Regarding `COc1cccc(Oc2cc(Nc3nccc(-c4ccc(OC)c(OC)c4OC)n3)ccc2OC)c1` [II-75], the inhibition constant Ki is below 0.1 µM in assay [3], below 0.1 µM in assay [2] and above 5 µM at CDK-2/Cyclin A.

For the compound `CCOc1ccc(Oc2cc(Nc3nccc(-c4ccc(OC)c(OC)c4OC)n3)ccc2OC)cc1` [II-76], the Ki in assay [3] was 0.1 to 1 µM; in assay [2], below 0.1 µM; on CDK-2/Cyclin A, above 5 µM.

The values above are taken from US6949544B2, “Inhibitors of c-Jun N-terminal kinases (JNK) and other protein kinases” (Vertex Pharmaceuticals Incorporated, priority 2001, dated 2005).
